The values that follow come from PMC6290480 (Cannabis and Cannabinoid Research, 2018).

Structures are written as SMILES. In brackets after ≈: the same amount, converted by molar mass. Like-named read-outs stand apart in the source and are kept apart here. A value given as a limit tells only on which side of the number the result lay.

Data set [1] deals with T1, CB1 (Homo sapiens, UniProt P21554).
T1 construct: expressed in transfected cells; host or cells: HEK293T cells, transient calcium phosphate transfection, pcDNA3.1 vector; membrane preparation
Description: biochemical. In kind it is binding. The settings on record: for α (binding cooperativity factor): cooperativity with orthosteric agonist [3H]CP55,940, α >1 positive allosteric modulator. How it is done:
(§1) Human embryonic kidney 293T (HEK293T) cells were grown and seeded in Dulbecco's modified Eagle's medium with 3.5 mg/mL glucose and 10% fetal bovine serum at 37°C and 5% carbon dioxide. To express the CB1 receptors, HEK293T cells were seeded at 1,000,000 cells/100-mm plate. The following day, cells were transfected via the calcium phosphate method with ∼10 μg of human CB1 receptor cloned into pcDNA3.1[23] Membranes of the transfected cells were prepared as previously described 21 h after transfection.[24]
Approximately 3 μg of membrane preparation expressing CB1 was incubated with nine concentrations of allosteric modulator (1 nM-10 μM). The radiolabeled tracer [[3]H]CP55,940 (150.2 Ci/mmol; Perkin Elmer), an orthosteric agonist of CB1, was added at 0.5 nM. Nonspecific binding was established by treating with a high concentration of unlabeled CP55,940 (10 μM; Tocris). The membranes were incubated at 30°C for 60 min, and the reaction was terminated with the addition of 300 μL of Tris-Mg^2+-EDTA (TME) buffer with 5% bovine serum albumin (BSA). The mixture was harvested by filtration through a Brandel cell harvester with Whatman GF/C filter paper. Liquid scintillation counting was used to measure radioactivity.
To synthesize the target azaindole-2-carboxamides, it requires corresponding azaindole-2-carboxylic acids (i.e., 1b and 8) as the key building blocks (Fig. 2). To access these azaindole-2-carboxylic acids, we used the Hemetsberger–Knittel indole synthesis, which involves Knoevenagel condensation between a pyridinecarbaldehyde and the azido acetate 5.[20] […] In this investigation, the 6-azaindole-2-carboxylic acid 1b was obtained from a commercial source (Achemtek, Worcester, MA). […] At the receptor binding level, when α is >1, the ligand is a positive allosteric modulator, whereas when α is <1, the ligand is a negative allosteric modulator. Accordingly, when α is equal to 1, it indicates no allosteric modulation on orthosteric ligand binding.

A short description of the next data set: physchem. In kind it is physicochemical. The settings on record: for solubility thermodynamic at 24 h: 37 °C, pH 7.4, aqueous buffer, thermodynamic from solid. How it is done:
The thermodynamic solubility of selected compounds were tested according to previously reported methods.[16],[22] In brief, stock solution of test compound (1 mg/mL) in acetonitrile was prepared and then diluted with mobile phase to prepare the calibration standards in the concentration range of 0.1–50 μg/mL. Following this, 2 mg of test compound powder was suspended in 2 mL of phosphate-buffered saline (PBS; 10 mM) at pH 7.4 and 37°C. The suspension was stirred at 37°C with 800 rpm stirring for 24 h. After completion of the incubation, the saturated suspension was filtered through a syringe polytetrafluoroethylene filter (0.45 μm), which has no absorption for the compounds. 200 μL of the filtrate was diluted with 800 μL acetonitrile immediately to a final volume of 1 mL. Subsequently, 20 μL of this solution was used for the high-performance liquid chromatography (HPLC) analysis, which was analyzed on Shimadzu HPLC (LC model: LC20AB, UV/vis detector: SPD20A; Autosampler: SIL-20A HT) with a Phenomenex reverse phase C18 column (250×3 mm, Luna 5 μm C18 100Å). The HPLC analysis was carried out by using the mixture of acetonitrile and water (60:40 v/v) as the mobile phase with a flow rate of 1 mL/min. The signals were detected at UV wavelength 254 nm. At this wavelength, each peak's area under the curve was measured and used for the quantitative evaluation.

For data set [2], the target named is T1, CB1. Description: [35S]GTPγS binding evaluation (G-protein coupling). In kind it is biochemical. The settings on record: percent of basal; for [35S]GTPγS binding, allosteric modulator alone: CB1 membranes treated with modulator alone; for [35S]GTPγS binding in the presence of CP55,940: modulator at 5 and 10 μM plus 0.1 μM CP55,940, compared to 0.1 μM CP55,940 alone. How it is done:
as §1
To assess the impact of 3c and 3d on G-protein coupling of CB1, GTPγS assays were performed essentially as described previously.[20] […] GTPγS binding assay buffer (50 mM Tris-HCl, pH 7.4, 3 mM MgCl2, 0.2 mM EGTA, and 100 mM NaCl) was added to 200 μL. The membranes were incubated for 1 h at 30°C. To determine nonspecific binding, 10 μM unlabeled GTPγS (Sigma) was used. To determine basal activity, membrane preparations were treated with vehicle (dimethylsulfoxide or DMSO) alone. Termination of the reaction was achieved through filtration using Whatman GF/C filter papers and washing with cold TME buffer. Bound radioactivity was measured by liquid scintillation counting.

[3] abbreviates: membranes of HEK293T cells expressing CB1, tracer [3H]CP55,940 0.5 nM, 30°C, 60 min, read-out: KB (equilibrium dissociation constant).
Where [4] appears, read: membranes of HEK293T cells expressing CB1, tracer [3H]CP55,940 0.5 nM, 30°C, 60 min.

T1 sequence (P21554 whole entry): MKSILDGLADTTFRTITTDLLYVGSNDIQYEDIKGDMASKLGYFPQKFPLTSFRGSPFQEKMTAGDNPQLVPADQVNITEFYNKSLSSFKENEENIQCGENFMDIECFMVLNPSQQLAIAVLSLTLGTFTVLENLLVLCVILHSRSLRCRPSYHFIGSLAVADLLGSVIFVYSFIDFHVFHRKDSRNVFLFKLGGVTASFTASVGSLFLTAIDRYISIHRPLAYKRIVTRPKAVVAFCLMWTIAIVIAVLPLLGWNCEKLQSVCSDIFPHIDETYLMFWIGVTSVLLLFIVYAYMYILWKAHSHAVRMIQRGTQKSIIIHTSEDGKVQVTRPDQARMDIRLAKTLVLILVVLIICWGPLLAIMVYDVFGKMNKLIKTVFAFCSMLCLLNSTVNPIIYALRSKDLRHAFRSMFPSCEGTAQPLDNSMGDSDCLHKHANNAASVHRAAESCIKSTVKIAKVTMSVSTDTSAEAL

In the case of `CN(C)c1ccc(CCNC(=O)c2cc3cc(Cl)ccc3[nH]2)cc1` [Compound 3a], the “α (binding cooperativity factor)” value on CB1 [1] is given as 4.2. In addition, the Kb on CB1 [1] (setting [3]) stood at 300 nM. In addition, the “Thermodynamic solubility (obtained from experiments)” value in “physchem” (24 h, pH 7.4) is 0 µg/mL.

`O=C(NCCc1ccc(N2CCCCC2)cc1)c1cc2cc(Cl)ccc2[nH]1` [Compound 3b]: on CB1 [1], the Kb was 200 nM and the “α (binding cooperativity factor)” value was determined as 5.1.

A word on the thermodynamic solubility: it is solubility found after equilibrating the solid with the medium. As for `CN(C)c1ccc(CCNC(=O)c2cc3cc(Cl)ncc3[nH]2)cc1` [Compound 3c], at CB1 [1], the “α (binding cooperativity factor)” value stood at 3.2. Also, the “KB (equilibrium dissociation constant)” value on CB1 [1] (setting [4]) is recorded as “modest binding affinity”. Also, at CB1 [1] (setting [3]), the Kb is 2400 nM. Further, at CB1 [2], the “[35S]GTPγS binding, allosteric modulator alone” value is given as “inhibition of G-protein coupling was also seen” and the “[35S]GTPγS binding in the presence of CP55,940” value is “inhibition of GTPγS binding”. This molecule also gave a thermodynamic solubility at 24 h in the data set “physchem” of 1.6 µg/mL (≈ 4.67 µM).

In the case of `O=C(NCCc1ccc(N2CCCCC2)cc1)c1cc2cc(Cl)ncc2[nH]1` [Compound 3d], at CB1 [1] (3d versus 3b), the “reduction of binding to the CB1 receptor in comparison with indole-2-carboxamide counterpart 3b” value is “about 25 fold”. In addition, the “KB (equilibrium dissociation constant)” value on CB1 [1] (setting [4]) is “modest binding affinity”. Also, at CB1 [1] (setting [3]), the Kb worked out at 5600 nM. In addition, at CB1 [2], the “[35S]GTPγS binding, allosteric modulator alone” value is given as “inhibition of G-protein coupling was also seen” and the “[35S]GTPγS binding in the presence of CP55,940” value is given as “inhibition of GTPγS binding”.

In the case of `CN(C)c1ccc(CCNC(=O)c2cc3cc(Cl)cnc3[nH]2)cc1` [Compound 9a], the “KB (equilibrium dissociation constant)” value at CB1 [1] (setting [4]) was “completely lost their binding affinity”. The Kb at CB1 [1] (setting [3]) is > 10000 nM. In addition, in the data set “physchem”, the “solubility in common organic solvents suitable for HPLC sample preparation” value was “exceptionally low solubility” and the thermodynamic solubility at 24 h stood at 3 µg/mL (≈ 8.75 µM).

As to `O=C(NCCc1ccc(N2CCCCC2)cc1)c1cc2cc(Cl)cnc2[nH]1` [Compound 9b], the “KB (equilibrium dissociation constant)” value on CB1 [1] (setting [4]) was “completely lost their binding affinity”. For the same molecule, on CB1 [1] (setting [3]), the Kb was > 10000 nM.
